Source: ChEMBL document CHEMBL4507312 (2021)

Key:
[1] = target: 5-hydroxytryptamine receptor 2A (Homo sapiens) (UniProt P28223); conditions: Compound concentration 10.0 uM
[2] = target: Muscarinic acetylcholine receptor M1 (Homo sapiens) (UniProt P11229); conditions: Compound concentration 10.0 uM
[3] = target: Sodium-dependent dopamine transporter (Homo sapiens) (UniProt Q01959); conditions: Compound concentration 10.0 uM
[4] = target: Beta-1 adrenergic receptor (Homo sapiens) (UniProt P08588); conditions: Compound concentration 10.0 uM
[5] = target: 5-hydroxytryptamine receptor 7 (Homo sapiens) (UniProt P34969); conditions: Compound concentration 10.0 uM
[6] = species: Rattus norvegicus; conditions: Compound concentration 10.0 uM
[7] = target: Sodium-dependent serotonin transporter (Homo sapiens) (UniProt P31645); conditions: Compound concentration 10.0 uM
[8] = target: Muscarinic acetylcholine receptor M3 (Homo sapiens) (UniProt P20309); conditions: Compound concentration 10.0 uM
Chain of Muscarinic acetylcholine receptor M3 (Homo sapiens) (P20309 whole entry, looked up): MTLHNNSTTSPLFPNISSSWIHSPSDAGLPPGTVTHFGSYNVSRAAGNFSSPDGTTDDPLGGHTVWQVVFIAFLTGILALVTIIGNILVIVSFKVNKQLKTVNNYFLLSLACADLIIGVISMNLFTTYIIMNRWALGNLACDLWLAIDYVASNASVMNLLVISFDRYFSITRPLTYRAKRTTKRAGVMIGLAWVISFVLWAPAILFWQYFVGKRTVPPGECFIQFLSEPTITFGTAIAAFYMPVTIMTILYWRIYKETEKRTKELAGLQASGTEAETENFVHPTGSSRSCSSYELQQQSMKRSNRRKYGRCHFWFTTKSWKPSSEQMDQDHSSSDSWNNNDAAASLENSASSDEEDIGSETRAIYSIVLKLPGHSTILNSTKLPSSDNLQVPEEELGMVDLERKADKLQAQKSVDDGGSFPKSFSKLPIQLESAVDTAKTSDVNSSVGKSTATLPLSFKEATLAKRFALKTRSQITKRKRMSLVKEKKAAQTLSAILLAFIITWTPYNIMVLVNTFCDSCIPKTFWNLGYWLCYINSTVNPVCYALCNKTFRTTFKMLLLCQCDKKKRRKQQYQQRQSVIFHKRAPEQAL

[9] = target: Alpha-1D adrenergic receptor (Homo sapiens) (UniProt P25100); conditions: Compound concentration 10.0 uM
[10] = target: Beta-3 adrenergic receptor (Homo sapiens) (UniProt P13945); conditions: Compound concentration 10.0 uM
[11] = target: D(1B) dopamine receptor (Homo sapiens) (UniProt P21918); conditions: Compound concentration 10.0 uM
Chain of D(1B) dopamine receptor (Homo sapiens) (P21918 whole entry): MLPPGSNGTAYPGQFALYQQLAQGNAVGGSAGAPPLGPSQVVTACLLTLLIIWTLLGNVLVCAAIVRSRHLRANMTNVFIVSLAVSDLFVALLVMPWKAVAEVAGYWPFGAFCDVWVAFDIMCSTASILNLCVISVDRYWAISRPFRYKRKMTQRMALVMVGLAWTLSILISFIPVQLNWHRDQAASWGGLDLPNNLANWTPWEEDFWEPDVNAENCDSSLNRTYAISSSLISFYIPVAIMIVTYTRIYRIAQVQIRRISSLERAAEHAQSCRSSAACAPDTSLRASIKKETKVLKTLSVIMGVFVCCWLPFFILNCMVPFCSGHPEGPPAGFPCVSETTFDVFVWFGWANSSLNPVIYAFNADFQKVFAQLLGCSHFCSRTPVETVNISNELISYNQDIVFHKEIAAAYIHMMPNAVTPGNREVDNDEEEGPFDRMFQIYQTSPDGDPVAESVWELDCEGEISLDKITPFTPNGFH

[12] = target: Sodium-dependent noradrenaline transporter (Homo sapiens) (UniProt P23975); conditions: Compound concentration 10.0 uM
Chain of Sodium-dependent noradrenaline transporter (Homo sapiens) (P23975 whole entry): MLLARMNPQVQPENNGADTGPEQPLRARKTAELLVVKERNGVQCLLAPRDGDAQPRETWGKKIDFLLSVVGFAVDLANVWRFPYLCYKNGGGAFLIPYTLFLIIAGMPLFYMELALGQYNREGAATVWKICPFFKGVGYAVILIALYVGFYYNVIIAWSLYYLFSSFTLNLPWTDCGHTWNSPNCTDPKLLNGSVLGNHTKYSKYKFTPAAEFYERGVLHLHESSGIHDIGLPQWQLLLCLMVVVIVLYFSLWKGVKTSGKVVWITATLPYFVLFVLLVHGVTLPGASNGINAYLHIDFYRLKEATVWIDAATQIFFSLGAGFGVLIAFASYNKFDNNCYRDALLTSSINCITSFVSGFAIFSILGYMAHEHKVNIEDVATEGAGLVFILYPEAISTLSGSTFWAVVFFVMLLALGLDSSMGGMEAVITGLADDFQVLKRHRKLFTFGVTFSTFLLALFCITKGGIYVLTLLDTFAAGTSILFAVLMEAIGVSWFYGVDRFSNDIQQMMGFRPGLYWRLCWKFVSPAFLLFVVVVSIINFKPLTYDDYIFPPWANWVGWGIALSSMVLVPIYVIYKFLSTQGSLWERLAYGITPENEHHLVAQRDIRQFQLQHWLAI

[13] = target: Beta-2 adrenergic receptor (Homo sapiens) (UniProt P07550); conditions: Compound concentration 10.0 uM
[14] = target: 5-hydroxytryptamine receptor 3A (Homo sapiens) (UniProt P46098); conditions: Compound concentration 10.0 uM
Chain of 5-hydroxytryptamine receptor 3A (Homo sapiens) (P46098 whole entry): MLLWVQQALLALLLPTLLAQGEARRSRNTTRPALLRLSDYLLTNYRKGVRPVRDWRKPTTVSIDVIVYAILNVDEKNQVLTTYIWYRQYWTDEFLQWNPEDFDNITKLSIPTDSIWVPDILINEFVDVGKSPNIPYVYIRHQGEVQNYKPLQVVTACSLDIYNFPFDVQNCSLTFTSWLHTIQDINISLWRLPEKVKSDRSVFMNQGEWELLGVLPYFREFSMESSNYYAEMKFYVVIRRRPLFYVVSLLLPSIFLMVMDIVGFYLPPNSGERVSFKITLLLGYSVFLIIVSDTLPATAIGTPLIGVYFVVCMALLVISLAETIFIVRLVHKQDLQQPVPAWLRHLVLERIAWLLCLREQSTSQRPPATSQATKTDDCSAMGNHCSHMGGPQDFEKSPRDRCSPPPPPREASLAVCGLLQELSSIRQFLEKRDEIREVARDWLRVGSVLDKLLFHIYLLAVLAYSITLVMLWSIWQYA

[15] = target: 5-hydroxytryptamine receptor 5A (Homo sapiens) (UniProt P47898); conditions: Compound concentration 10.0 uM
[16] = target: Alpha-1A adrenergic receptor (Homo sapiens) (UniProt P35348); conditions: Compound concentration 10.0 uM
[17] = target: Muscarinic acetylcholine receptor M5 (Homo sapiens) (UniProt P08912); conditions: Compound concentration 10.0 uM
Chain of Muscarinic acetylcholine receptor M5 (Homo sapiens) (P08912 whole entry): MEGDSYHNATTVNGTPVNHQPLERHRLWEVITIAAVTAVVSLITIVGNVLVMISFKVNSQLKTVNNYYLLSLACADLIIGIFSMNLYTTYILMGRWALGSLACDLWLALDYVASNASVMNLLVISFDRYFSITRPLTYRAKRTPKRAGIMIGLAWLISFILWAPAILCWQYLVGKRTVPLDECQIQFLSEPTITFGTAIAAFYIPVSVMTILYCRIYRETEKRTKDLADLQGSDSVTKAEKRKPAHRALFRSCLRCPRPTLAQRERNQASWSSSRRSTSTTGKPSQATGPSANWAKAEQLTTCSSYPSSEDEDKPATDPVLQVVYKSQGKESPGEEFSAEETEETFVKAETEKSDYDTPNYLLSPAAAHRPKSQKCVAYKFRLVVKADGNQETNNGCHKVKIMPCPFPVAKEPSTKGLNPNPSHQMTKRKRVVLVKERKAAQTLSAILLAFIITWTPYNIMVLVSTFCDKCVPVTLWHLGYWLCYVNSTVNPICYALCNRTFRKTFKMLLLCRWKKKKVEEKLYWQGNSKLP

[18] = target: Alpha-2C adrenergic receptor (Homo sapiens) (UniProt P18825); conditions: Compound concentration 10.0 uM
[19] = target: T1, Sigma intracellular receptor 2 (Homo sapiens, UniProt Q5BJF2); test: GPCRScan assay: inhibition of Sigma 2; parameters: radioligand conc. used [nm] 5.0, parental cells HEKT
T1 sequence (Q5BJF2 whole entry): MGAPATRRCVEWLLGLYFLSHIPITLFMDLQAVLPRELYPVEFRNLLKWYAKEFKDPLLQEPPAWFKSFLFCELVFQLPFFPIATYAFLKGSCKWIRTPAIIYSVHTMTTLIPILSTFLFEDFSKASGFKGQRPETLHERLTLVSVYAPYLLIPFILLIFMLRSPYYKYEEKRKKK

[20] = target: T1, Sigma intracellular receptor 2; conditions: Compound concentration 10.0 uM
[21] = target: 5-hydroxytryptamine receptor 1B (Homo sapiens) (UniProt P28222); conditions: Compound concentration 10.0 uM
[22] = target: Muscarinic acetylcholine receptor M2 (Homo sapiens) (UniProt P08172); conditions: Compound concentration 10.0 uM
[23] = target: Kappa-type opioid receptor (Homo sapiens) (UniProt P41145); conditions: Compound concentration 10.0 uM
[24] = target: 5-hydroxytryptamine receptor 1A (Homo sapiens) (UniProt P08908); conditions: Compound concentration 10.0 uM
[25] = target: Alpha-2B adrenergic receptor (Homo sapiens) (UniProt P18089); conditions: Compound concentration 10.0 uM
Chain of Alpha-2B adrenergic receptor (Homo sapiens) (P18089 whole entry): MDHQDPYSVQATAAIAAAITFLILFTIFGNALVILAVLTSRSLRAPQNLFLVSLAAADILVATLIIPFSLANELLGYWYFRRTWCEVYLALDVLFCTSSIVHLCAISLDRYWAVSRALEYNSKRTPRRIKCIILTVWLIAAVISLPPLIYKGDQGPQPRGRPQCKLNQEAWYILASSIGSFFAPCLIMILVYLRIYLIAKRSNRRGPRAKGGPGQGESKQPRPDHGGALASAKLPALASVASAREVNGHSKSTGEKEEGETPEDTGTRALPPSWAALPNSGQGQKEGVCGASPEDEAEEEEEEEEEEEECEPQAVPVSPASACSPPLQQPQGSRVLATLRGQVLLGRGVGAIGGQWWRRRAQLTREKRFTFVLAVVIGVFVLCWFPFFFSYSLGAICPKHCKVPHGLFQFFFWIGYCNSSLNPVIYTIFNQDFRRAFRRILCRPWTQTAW

[26] = target: 5-hydroxytryptamine receptor 6 (Homo sapiens) (UniProt P50406); conditions: Compound concentration 10.0 uM
[27] = target: Mu-type opioid receptor (Homo sapiens) (UniProt P35372); conditions: Compound concentration 10.0 uM
[28] = target: Histamine H1 receptor (Homo sapiens) (UniProt P35367); conditions: Compound concentration 10.0 uM
[29] = target: 5-hydroxytryptamine receptor 2B (Homo sapiens) (UniProt P41595); conditions: Compound concentration 10.0 uM
[30] = target: 5-hydroxytryptamine receptor 2C (Homo sapiens) (UniProt P28335); conditions: Compound concentration 10.0 uM
[31] = target: Muscarinic acetylcholine receptor M4 (Homo sapiens) (UniProt P08173); conditions: Compound concentration 10.0 uM
Chain of Muscarinic acetylcholine receptor M4 (Homo sapiens) (P08173 whole entry): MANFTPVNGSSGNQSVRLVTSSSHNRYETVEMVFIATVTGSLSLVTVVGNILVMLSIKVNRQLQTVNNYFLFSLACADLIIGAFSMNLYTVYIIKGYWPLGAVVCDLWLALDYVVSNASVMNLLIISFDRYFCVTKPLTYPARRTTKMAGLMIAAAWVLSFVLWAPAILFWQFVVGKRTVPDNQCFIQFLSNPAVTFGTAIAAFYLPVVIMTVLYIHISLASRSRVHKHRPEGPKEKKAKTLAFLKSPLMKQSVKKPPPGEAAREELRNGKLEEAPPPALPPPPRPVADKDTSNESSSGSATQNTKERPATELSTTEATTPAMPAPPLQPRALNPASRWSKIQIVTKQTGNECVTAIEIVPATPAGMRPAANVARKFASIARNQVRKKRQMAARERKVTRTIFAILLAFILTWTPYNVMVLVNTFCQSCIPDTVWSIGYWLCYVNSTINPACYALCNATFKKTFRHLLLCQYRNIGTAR

[32] = target: D(4) dopamine receptor (Homo sapiens) (UniProt P21917); conditions: Compound concentration 10.0 uM
Chain of D(4) dopamine receptor (Homo sapiens) (P21917 whole entry): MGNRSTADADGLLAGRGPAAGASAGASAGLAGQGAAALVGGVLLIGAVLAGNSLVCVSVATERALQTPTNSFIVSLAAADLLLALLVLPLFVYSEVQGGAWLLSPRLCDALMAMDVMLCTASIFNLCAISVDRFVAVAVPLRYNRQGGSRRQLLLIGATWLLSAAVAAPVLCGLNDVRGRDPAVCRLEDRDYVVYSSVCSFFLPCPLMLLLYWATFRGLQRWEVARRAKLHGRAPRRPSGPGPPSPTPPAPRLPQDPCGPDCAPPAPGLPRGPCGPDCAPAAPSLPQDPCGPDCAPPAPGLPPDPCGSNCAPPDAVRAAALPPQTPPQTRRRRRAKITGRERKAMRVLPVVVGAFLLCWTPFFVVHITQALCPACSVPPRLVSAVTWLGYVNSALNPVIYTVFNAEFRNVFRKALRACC

[33] = target: Delta-type opioid receptor (Homo sapiens) (UniProt P41143); conditions: Compound concentration 10.0 uM
[34] = target: Histamine H4 receptor (Homo sapiens) (UniProt Q9H3N8); conditions: Compound concentration 10.0 uM
[35] = target: Alpha-1B adrenergic receptor (Homo sapiens) (UniProt P35368); conditions: Compound concentration 10.0 uM
[36] = target: Alpha-2A adrenergic receptor (Homo sapiens) (UniProt P08913); conditions: Compound concentration 10.0 uM
Chain of Alpha-2A adrenergic receptor (Homo sapiens) (P08913 whole entry): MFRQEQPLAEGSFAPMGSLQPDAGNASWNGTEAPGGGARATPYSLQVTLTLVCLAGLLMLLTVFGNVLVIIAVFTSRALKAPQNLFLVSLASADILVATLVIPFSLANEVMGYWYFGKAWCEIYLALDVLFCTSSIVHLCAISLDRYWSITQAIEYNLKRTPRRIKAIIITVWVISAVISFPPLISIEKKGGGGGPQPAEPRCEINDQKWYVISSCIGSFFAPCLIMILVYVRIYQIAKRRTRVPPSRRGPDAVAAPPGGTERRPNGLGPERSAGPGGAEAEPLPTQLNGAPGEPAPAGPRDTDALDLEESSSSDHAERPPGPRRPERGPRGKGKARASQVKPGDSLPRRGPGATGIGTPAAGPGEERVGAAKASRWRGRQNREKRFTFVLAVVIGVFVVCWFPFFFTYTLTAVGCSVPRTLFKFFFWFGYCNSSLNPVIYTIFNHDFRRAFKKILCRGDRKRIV

inhibition [1]: -7.39% | inhibition [2]: 5.35% | inhibition [3]: -6.74% | inhibition [4]: 23.9% | inhibition [5]: 15.8% | inhibition [6]: -2.86% | inhibition [7]: -0.39% | inhibition [8]: -6.6% | inhibition [9]: -0.81% | inhibition [10]: 17.6% | inhibition [11]: -2.37% | inhibition [12]: 0.15% | inhibition [13]: 17% | inhibition [14]: 11.7% | inhibition [15]: -6.43% | inhibition [16]: -2.65% | inhibition [17]: 4.72% | inhibition [18]: 8.56% | Ki ([19]; read-out: Ki): 5.25 µM | Ki ([19]; read-out: pKi (converted)): 4.47 µM | inhibition [20]: 64.9% | inhibition [21]: -6.09% | inhibition [22]: 16.2% | inhibition [23]: -0.09% | inhibition [24]: 0.45% | inhibition [25]: 13.3% | inhibition [26]: 9.36% | inhibition [27]: -1.35% | inhibition [28]: 21.2% | inhibition [29]: 22.8% | inhibition [30]: -1.77% | inhibition [31]: 10.3% | inhibition [32]: -4.56% | inhibition [33]: 1.01% | inhibition [34]: -0.91% | inhibition [35]: -4.23% | inhibition [36]: 7.06%
SMILES: Cc1c(Oc2ccc(F)cc2)c(OC(C)C)nn1-c1ccc(C2CC2)cn1 [IPP/CNRS-A019]
